Measurements reported in patent US11173151B2, “Substituted triazole derivatives and uses thereof” (BAYER AKTIENGESELLSCHAFT, priority 2017, dated 2021).

How the values were obtained:
[1] = target: T1, human V1a receptor (Homo sapiens, UniProt P37288); assay: Cellular in vitro assay for determining vasopressin receptor activity, V1a receptor cell line (CHO, aequorin luminescence); type: cell-based; details: for IC50: CHO cell line transfected with human V1a receptor, [Arg]-vasopressin at EC50 concentration, read-out: IC50 hV1a; for ratio IC50 hV2/hV1a: selectivity ratio IC50 hV2 / IC50 hV1a
T1 construct: expressed in transfected cells; host or cells: CHO K1 (ATCC), also stably transfected with a modified aequorin
Summary of the method: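 IC50 from inhibition of [Arg]-vasopressin (EC50 concentration)-evoked aequorin luminescence in CHO K1 cells, with 10-min compound pretreatment.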

[2] = target: T2, human V2 receptor (Homo sapiens, UniProt P30518); assay: Cellular in vitro assay for determining vasopressin receptor activity, V2 receptor cell line (CHO, CRE-luciferase); type: cell-based; details: CHO cell line transfected with human V2 receptor; [Arg8]-vasopressin at EC50 concentration, 3 hours; read-out: IC50 hV2
T2 construct: expressed in transfected cells; host or cells: CHO K1 (ATCC) expressing firefly luciferase under a CRE-responsive promoter
T2 sequence (P30518 whole entry): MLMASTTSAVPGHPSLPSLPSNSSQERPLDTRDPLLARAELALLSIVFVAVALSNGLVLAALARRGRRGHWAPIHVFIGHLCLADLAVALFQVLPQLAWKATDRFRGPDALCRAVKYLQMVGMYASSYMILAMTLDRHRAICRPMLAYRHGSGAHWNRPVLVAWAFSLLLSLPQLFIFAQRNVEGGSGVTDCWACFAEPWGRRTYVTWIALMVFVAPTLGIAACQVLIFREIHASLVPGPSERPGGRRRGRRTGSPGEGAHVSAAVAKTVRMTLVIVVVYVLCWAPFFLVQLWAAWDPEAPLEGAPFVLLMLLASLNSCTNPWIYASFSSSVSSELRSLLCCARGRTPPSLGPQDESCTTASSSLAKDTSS

T1 sequence (P37288 whole entry): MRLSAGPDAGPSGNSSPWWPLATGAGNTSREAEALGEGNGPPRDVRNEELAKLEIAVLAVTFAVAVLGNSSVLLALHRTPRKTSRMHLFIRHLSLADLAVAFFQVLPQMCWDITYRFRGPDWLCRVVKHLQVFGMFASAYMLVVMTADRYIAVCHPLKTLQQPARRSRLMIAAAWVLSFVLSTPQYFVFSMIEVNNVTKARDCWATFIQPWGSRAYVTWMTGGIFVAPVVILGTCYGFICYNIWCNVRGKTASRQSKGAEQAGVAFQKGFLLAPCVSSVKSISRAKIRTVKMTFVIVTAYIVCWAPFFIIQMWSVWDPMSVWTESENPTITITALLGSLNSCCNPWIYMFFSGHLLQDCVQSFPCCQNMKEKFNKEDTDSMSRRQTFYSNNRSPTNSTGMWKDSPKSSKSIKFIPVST

SMILES	IC50 [1]	ratio IC50 hV2/hV1a [1]	IC50 [2]
CC(C)CNC(=O)c1ccccc1-n1cnc(Cn2nc(-c3ccc(Cl)cc3)n(C[C@H](O)C(F)(F)F)c2=O)n1 [Example 341, 2-[3-({3-(4-Chlorophenyl)-5-oxo-4-[(2S)-3,3,3-trifluoro-2-hydroxypropyl]-4,5-dihydro-1H-1,2,4-triazol-1-yl}methyl)-1H-1,2,4-triazol-1-yl]-N-(2-methylpropyl)benzamide]	0.00155 µM	132.3	0.205 µM
O=C(NC1CCCCCC1)c1ccccc1-n1cnc(Cn2nc(-c3ccc(Cl)cc3)n(C[C@H](O)C(F)(F)F)c2=O)n1 [Example 342, 2-[3-({3-(4-Chlorophenyl)-5-oxo-4-[(2S)-3,3,3-trifluoro-2-hydroxypropyl]-4,5-dihydro-1H-1,2,4-triazol-1-yl}methyl)-1H-1,2,4-triazol-1-yl]-N-cycloheptylbenzamide]	0.00615 µM	59.3	0.365 µM
O=C(NC1CCCC1)c1ccccc1-n1cnc(Cn2nc(-c3ccc(Cl)cc3)n(C[C@H](O)C(F)(F)F)c2=O)n1 [Example 343, 2-[3-({3-(4-Chlorophenyl)-5-oxo-4-[(2S)-3,3,3-trifluoro-2-hydroxypropyl]-4,5-dihydro-1H-1,2,4-triazol-1-yl}methyl)-1H-1,2,4-triazol-1-yl]-N-cyclopentylbenzamide]	0.00087 µM	118.4	0.103 µM
CC(C)(C)NC(=O)c1ccccc1-n1cnc(Cn2nc(-c3ccc(Cl)cc3)n(C[C@H](O)C(F)(F)F)c2=O)n1 [Example 344, N-Tert-butyl-2-[3-({3-(4-chlorophenyl)-5-oxo-4-[(2S)-3,3,3-trifluoro-2-hydroxypropyl]-4,5-dihydro-1H-1,2,4-triazol-1-yl}methyl)-1H-1,2,4-triazol-1-yl]benzamide]	0.00093 µM	5.0	0.0047 µM
O=C(c1ccccc1-n1cnc(Cn2nc(-c3ccc(Cl)cc3)n(C[C@H](O)C(F)(F)F)c2=O)n1)N1CCCCCC1 [Example 350, 2-({1-[2-(Azepan-1-ylcarbonyl)phenyl]-1H-1,2,4-triazol-3-yl}methyl)-5-(4-chlorophenyl)-4-[(2S)-3,3,3-trifluoro-2-hydroxypropyl]-2,4-dihydro-3H-1,2,4-triazol-3-one]	0.0018 µM	147.2	0.265 µM
CC1CCCCN1C(=O)c1ccccc1-n1cnc(Cn2nc(-c3ccc(Cl)cc3)n(C[C@H](O)C(F)(F)F)c2=O)n1 (stereo partly drawn) [Example 352, 5-(4-Chlorophenyl)-2-{[1-(2-{[2-methylpiperidin-1-yl]carbonyl}phenyl)-1H-1,2,4-triazol-3-yl]methyl}-4-[(2S)-3,3,3-trifluoro-2-hydroxypropyl]-2,4-dihydro-3H-1,2,4-triazol-3-one]	0.00084 µM	383.2	0.32 µM
O=C(NC1CCCCC1)c1ccccc1-n1cnc(Cn2nc(-c3ccc(Cl)cc3)n(C[C@H](O)C(F)(F)F)c2=O)n1 [Example 354, 2-[3-({3-(4-Chlorophenyl)-5-oxo-4-[(2S)-3,3,3-trifluoro-2-hydroxypropyl]-4,5-dihydro-1H-1,2,4-triazol-1-yl}methyl)-1H-1,2,4-triazol-1-yl]-N-cyclohexylbenzamide]	0.00225 µM	66.7	0.15 µM
CC(C)CN(C)C(=O)c1ccccc1-n1cnc(Cn2nc(-c3ccc(Cl)cc3)n(C[C@H](O)C(F)(F)F)c2=O)n1 [Example 356, 2-[3-({3-(4-Chlorophenyl)-5-oxo-4-[(2S)-3,3,3-trifluoro-2-hydroxypropyl]-4,5-dihydro-1H-1,2,4-triazol-1-yl}methyl)-1H-1,2,4-triazol-1-yl]-N-methyl-N-(2-methylpropyl)benzamide]	0.00245 µM	771.4	1.89 µM
CN1CCN(C(=O)c2ccccc2-n2cnc(Cn3nc(-c4ccc(Cl)cc4)n(C[C@H](O)C(F)(F)F)c3=O)n2)CC1 [Example 357, 5-(4-Chlorophenyl)-2-[(1-{2-[(4-methylpiperazin-1-yl)carbonyl]phenyl}-1H-1,2,4-triazol-3-yl)methyl]-4-[(2S)-3,3,3-trifluoro-2-hydroxypropyl]-2,4-dihydro-3H-1,2,4-triazol-3-one]	0.033 µM	74.2	2.45 µM
CCN1CCN(C(=O)c2ccccc2-n2cnc(Cn3nc(-c4ccc(Cl)cc4)n(C[C@H](O)C(F)(F)F)c3=O)n2)CC1 [Example 358, 5-(4-Chlorophenyl)-2-[(1-{2-[(4-ethylpiperazin-1-yl)carbonyl]phenyl}-1H-1,2,4-triazol-3-yl)methyl]-4-[(2S)-3,3,3-trifluoro-2-hydroxypropyl]-2,4-dihydro-3H-1,2,4-triazol-3-one]	0.018 µM	152.8	2.75 µM
O=C(c1ccccc1-n1cnc(Cn2nc(-c3ccc(Cl)cc3)n(C[C@H](O)C(F)(F)F)c2=O)n1)N1CCCCCCC1 [Example 359, 2-({1-[2-(Azocan-1-ylcarbonyl)phenyl]-1H-1,2,4-triazol-3-yl}methyl)-5-(4-chlorophenyl)-4-[(2S)-3,3,3-trifluoro-2-hydroxypropyl]-2,4-dihydro-3H-1,2,4-triazol-3-one]	0.0065 µM	138.5	0.9 µM

The remaining compounds from weak to strong by IC50 [1], led by results:

IC50 [1]	ratio IC50 hV2/hV1a [1]	IC50 [2]	SMILES
0.00755 µM	141.1	1.06 µM	CC1CCN(C(=O)c2ccccc2-n2cnc(Cn3nc(-c4ccc(Cl)cc4)n(C[C@H](O)C(F)(F)F)c3=O)n2)CC1 [Example 347, 5-(4-Chlorophenyl)-2-[(1-{2-[(4-methylpiperidin-1-yl)carbonyl]phenyl}-1H-1,2,4-triazol-3-yl)methyl]-4-[(2S)-3,3,3-trifluoro-2-hydroxypropyl]-2,4-dihydro-3H-1,2,4-triazol-3-one]
0.0055 µM	62.7	0.345 µM	O=C(NCc1ccccc1F)c1ccccc1-n1cnc(Cn2nc(-c3ccc(Cl)cc3)n(C[C@H](O)C(F)(F)F)c2=O)n1 [Example 363, 2-[3-({3-(4-Chlorophenyl)-5-oxo-4-[(2S)-3,3,3-trifluoro-2-hydroxypropyl]-4,5-dihydro-1H-1,2,4-triazol-1-yl}methyl)-1H-1,2,4-triazol-1-yl]-N-(2-fluorobenzyl)benzamide]
0.00485 µM	515.5	2.5 µM	CN(CCC#N)C(=O)c1ccccc1-n1cnc(Cn2nc(-c3ccc(Cl)cc3)n(C[C@H](O)C(F)(F)F)c2=O)n1 [Example 362, 2-[3-({3-(4-Chlorophenyl)-5-oxo-4-[(2S)-3,3,3-trifluoro-2-hydroxypropyl]-4,5-dihydro-1H-1,2,4-triazol-1-yl}methyl)-1H-1,2,4-triazol-1-yl]-N-(2-cyanoethyl)-N-methylbenzamide]
0.0047 µM	157.4	0.74 µM	CCN(C(=O)c1ccccc1-n1cnc(Cn2nc(-c3ccc(Cl)cc3)n(C[C@H](O)C(F)(F)F)c2=O)n1)C(C)C [Example 349, 2-[3-({3-(4-Chlorophenyl)-5-oxo-4-[(2S)-3,3,3-trifluoro-2-hydroxypropyl]-4,5-dihydro-1H-1,2,4-triazol-1-yl}methyl)-1H-1,2,4-triazol-1-yl]-N-ethyl-N-(propan-2-yl)benzamide]
0.00385 µM	251.9	0.97 µM	O=C(c1ccccc1-n1cnc(Cn2nc(-c3ccc(Cl)cc3)n(C[C@H](O)C(F)(F)F)c2=O)n1)N1CCCC1 [Example 348, 5-(4-Chlorophenyl)-2-({1-[2-(pyrrolidin-1-ylcarbonyl)phenyl]-1H-1,2,4-triazol-3-yl}methyl)-4-[(2S)-3,3,3-trifluoro-2-hydroxypropyl]-2,4-dihydro-3H-1,2,4-triazol-3-one]
0.00255 µM	38.2	0.0975 µM	Cc1cccc(NC(=O)c2ccccc2-n2cnc(Cn3nc(-c4ccc(Cl)cc4)n(C[C@H](O)C(F)(F)F)c3=O)n2)c1 [Example 361, 2-[3-({3-(4-Chlorophenyl)-5-oxo-4-[(2S)-3,3,3-trifluoro-2-hydroxypropyl]-4,5-dihydro-1H-1,2,4-triazol-1-yl}methyl)-1H-1,2,4-triazol-1-yl]-N-(3-methylphenyl)benzamide]
0.00175 µM	67.7	0.119 µM	CC[C@H](C)NC(=O)c1ccccc1-n1cnc(Cn2nc(-c3ccc(Cl)cc3)n(C[C@H](O)C(F)(F)F)c2=O)n1 [Example 346, N-[(2S)-Butan-2-yl]-2-[3-({3-(4-chlorophenyl)-5-oxo-4-[(2S)-3,3,3-trifluoro-2-hydroxypropyl]-4,5-dihydro-1H-1,2,4-triazol-1-yl}methyl)-1H-1,2,4-triazol-1-yl]benzamide]
0.00094 µM	299.5	0.28 µM	O=C(c1ccccc1-n1cnc(Cn2nc(-c3ccc(Cl)cc3)n(C[C@H](O)C(F)(F)F)c2=O)n1)N1CC=CCC1 [Example 353, 5-(4-Chlorophenyl)-2-({1-[2-(3,6-dihydropyridin-1(2H)-ylcarbonyl)phenyl]-1H-1,2,4-triazol-3-yl}methyl)-4-[(2S)-3,3,3-trifluoro-2-hydroxypropyl]-2,4-dihydro-3H-1,2,4-triazol-3-one]
0.00074 µM	20.1	0.0149 µM	O=C(Nc1ccccc1)c1ccccc1-n1cnc(Cn2nc(-c3ccc(Cl)cc3)n(C[C@H](O)C(F)(F)F)c2=O)n1 [Example 360, 2-[3-({3-(4-Chlorophenyl)-5-oxo-4-[(2S)-3,3,3-trifluoro-2-hydroxypropyl]-4,5-dihydro-1H-1,2,4-triazol-1-yl}methyl)-1H-1,2,4-triazol-1-yl]-N-phenylbenzamide]
